Test system: Salinispora tropica NPS021184
Experiment: Production of Salinosporamide A and analogs in shake flask or tube culture; titers by HPLC of EtOAc extract
Conditions: for % Increase (+) or % decrease (−) of maximum titer: Ex.1 Table 1; for % Increase (+) or % decrease (−) of max titer: Ex.1 Table 2; for % increase/decrease of titer / relative % change (of % relative to Sal A): Ex.2 Table 3; for % Increase (+) or % decrease (−) of average max titer: Ex.2 Table 4; for relative decrease in production (relative to Salinosporamide A): 208 μg/L CoCl2·6H2O in seed medium, 52 μg/L in production medium vs no cobalt in seed
Protocol: Seed cultures were prepared by inoculating frozen stock of Salinispora tropica NPS021184 into seed medium.
(§1) The first seed cultures (either 10 mL medium in a 50-mL tube or 100 mL medium in a 500-mL Erlenmeyer flask) were incubated for 3 to 4 days before inoculating into the second seed media with the same composition as the first seed cultures. The second seed cultures (100 mL medium in a 500-mL Erlenmeyer flask) were incubated for two days before inoculating into the production medium (100 mL medium in a 500-mL Erlenmeyer flask).
The chemically defined salt formulation included: […]
(§2) 3.5 mL of the fermentation culture was mixed with equal volume of EtOAc in an extraction tube to extract the various metabolites from the production culture. The mixture was shaken on a shaker for one hr. An aliquot of the extract (1 mL) was removed and dried under a stream of nitrogen. The dried extract was stored at −20° C. freezer before HPLC analysis. The dried extract was resuspended in 320 μL DMSO and injected into HPLC using the 00TF14 method for analysis.
The production of Salinosporamide A, NPI-0047 and NPI-2065 was monitored by Agilent HP1100 HPLC using an ACE C-18 reversed-phase column (4.6×150 mm), and solvent system consisting of water (0.01% TFA) as solvent A and acetonitrile (0.01% TFA) as solvent B. The elution was started at 100% solvent A for 1 min, 100% solvent A to 35% solvent A gradient in 7 min, held at 35% solvent A for 11 min, 35% solvent A to 100% solvent B in 8 min and held at 100% solvent B for 9 min at a flow rate of 1.5 mL/min with the detector wavelength set at 210 nm and column temperature 35° C.
The first seed cultures (either 10 mL medium in a 50-mL tube or 100 ml medium in a 500-ml Erlenmeyer flask) were incubated for 3 to 4 days before inoculating into the second seed media with the same composition as the first seed cultures. The second seed cultures (100 mL medium in a 500-mL Erlenmeyer flask) were incubated for two days before inoculating into the production medium (100 mL medium in a 500-mL Erlenmeyer flask).
as §1, with “in a 50-ml tube or” for “in a 50-mL tube or”, “inoculating into production medium” for “inoculating into the production medium”
as §2, with “shaken” for “shaken on a shaker”, “1” for “one”, “[…]” for “μL”, “TFS7” for “00TF14”
The production of Salinosporamide A, NPI-0047 and NPI-2065 was monitored by Agilent HP1100 HPLC using an ACE C-18 reversed-phase column (4.6×150 mm), and isocratic solvent system consisting of 67% water (0.01% TFA) and 33% acetonitrile (0.01% TFA). The flow rate was 1.5 mL/min for 15 min with the detector wavelength set at 210 nm and column temperature 35° C.
3.5 mL of the fermentation culture was mixed with equal volume of EtOAc in an extraction tube to extract the various metabolites from the production culture. The mixture was shaken on the shaker for 1 hr. An aliquot of the extract (1 mL) was removed and dried under a stream of nitrogen. The dried extract was stored at −20° C. freezer before HPLC analysis. The dried extract was resuspended in 320 μL DMSO and injected into HPLC using the TFS7 method for analysis. […]

[1] = 104 μg/L CoCl2·6H2O in production medium vs no addition
[2] = 1.04 mg/L CoCl2·6H2O in production medium vs no addition
[3] = 10.4 mg/L CoCl2·6H2O in production medium vs no addition
[4] = 2.6 μg/L CoCl2·6H2O in production medium vs control
[5] = 5.2 μg/L CoCl2·6H2O in production medium vs control
[6] = 6.5 μg/L CoCl2·6H2O in production medium vs control
[7] = 13 μg/L CoCl2·6H2O in production medium vs control
[8] = 26 μg/L CoCl2·6H2O in production medium vs control
[9] = 52 μg/L CoCl2·6H2O in production medium vs control
[10] = 104 μg/L CoCl2·6H2O in production medium vs control
[11] = 208 μg/L CoCl2·6H2O in production medium vs control
[12] = 416 μg/L CoCl2·6H2O in production medium vs control
[13] = seed CoCl2·6H2O 0 μg/L (reference)
[14] = seed CoCl2·6H2O 2.6 μg/L vs 0 μg/L
[15] = seed CoCl2·6H2O 5.2 μg/L vs 0 μg/L
[16] = seed CoCl2·6H2O 13 μg/L vs 0 μg/L
[17] = seed CoCl2·6H2O 26 μg/L vs 0 μg/L
[18] = seed CoCl2·6H2O 52 μg/L vs 0 μg/L
[19] = seed CoCl2·6H2O 104 μg/L vs 0 μg/L
[20] = seed CoCl2·6H2O 208 μg/L vs 0 μg/L
[21] = seed CoCl2·6H2O 416 μg/L vs 0 μg/L
[22] = CoCl2·6H2O seed 0 / production 52 μg/L vs no cobalt
[23] = CoCl2·6H2O seed 208 μg/L / production 52 μg/L vs no cobalt
[24] = Ex.2, cobalt in both seed (208 μg/L) and production (52 μg/L) media vs media without cobalt
[25] = Ex.2, cobalt in seed and production media vs cobalt in production medium only

Compound	% Increase (+) or % decrease (−) of maximum titer [1] [%]	% Increase (+) or % decrease (−) of maximum titer [2] [%]	% Increase (+) or % decrease (−) of maximum titer [3] [%]	% Increase (+) or % decrease (−) of max titer [4]	% Increase (+) or % decrease (−) of max titer [5] [%]	% Increase (+) or % decrease (−) of max titer [6]	% Increase (+) or % decrease (−) of max titer [7] [%]	% Increase (+) or % decrease (−) of max titer [8]	% Increase (+) or % decrease (−) of max titer [9] [%]	% Increase (+) or % decrease (−) of max titer [10] [%]	% Increase (+) or % decrease (−) of max titer [11]	% Increase (+) or % decrease (−) of max titer [12] [%]	% increase/decrease of titer [13] [%]	% increase/decrease of titer [14] [%]	% increase/decrease of titer [15] [%]	% increase/decrease of titer [16] [%]	% increase/decrease of titer [17] [%]	% increase/decrease of titer [18] [%]	% increase/decrease of titer [19] [%]	% increase/decrease of titer [20] [%]	further results
CC[C@H]1C(=O)N[C@@]2([C@@H](O)[C@@H]3C=CCCC3)C(=O)O[C@@]12C [NPI-0047, Salinosporamide B]	−65.9	−67.4	−71.3	−18.6%	−41.2	−38.2%	−52.0	−63.7%	−69.6	−65.7	−69.6%	−73.5	0.0	5.9	2.0	−17.2	−2.3	−21.6	−9.2	−11.9	reduction of concentration in the fermentation (Ex.14, 0.22 μM vitamin B12 added to production medium (Instant Ocean based)): 74%; reduction of production (Ex.1, 52 μg/L cobalt concentration in production medium vs control): 69.6%; decrease in production (Ex.1, 104 μg/L CoCl2·6H2O added to production medium vs none): 66%; relative % change (of % relative to Sal A) [13]: 0.0%; relative % change (of % relative to Sal A) [14]: 4.2%; relative % change (of % relative to Sal A) [15]: −2.7%; relative % change (of % relative to Sal A) [16]: −20.2%; relative % change (of % relative to Sal A) [17]: −28.4%; relative % change (of % relative to Sal A) [18]: −36.1%; relative % change (of % relative to Sal A) [19]: −29.9%; relative % change (of % relative to Sal A) [20]: −41.3%; % increase/decrease of titer [21]: −10.4%; relative % change (of % relative to Sal A) [21]: −21.5%; % Increase (+) or % decrease (−) of average max titer [22]: −71.7%; % Increase (+) or % decrease (−) of average max titer [23]: −78.0%; reduction of production by cobalt (Ex.21, NPS21184, CoCl2·6H2O 208 μg/L seed, 52 μg/L production vs no cobalt): 91%; relative decrease in production (relative to Salinosporamide A) (Ex.2): 41.3%; reduction of production [24]: 78.0%; reduction of production [25]: 22.2%
C[C@@]12OC(=O)[C@]1([C@@H](O)[C@@H]1C=CCCC1)NC(=O)[C@H]2CCCl [NPI-2065]	−21.0	−12.2	−30.8	−7.6%	−1.5	−6.1%	−1.5	+3.0%	−4.6	−1.5	−6.1%	−15.2	0.0	1.7	4.2	5.9	23.1	17.7	15.5	19.7	reduction of concentration in the fermentation (Ex.14, vitamin B12 in Instant Ocean based medium): 30%; reduction of concentration in the fermentation (Ex.15, Vitamin B12 or CoCl2·6H2O at 0.22 μM in salt formulation based medium): no reduction; maximum inhibition of production (Ex.1, 416 μg/L, highest cobalt concentration tested in production medium): 15%; inhibition of production (Ex.1, 10.4 mg/L CoCl2·6H2O in production medium vs none): 30.8%; relative % change (of % relative to Sal A) [13]: 0.0%; relative % change (of % relative to Sal A) [14]: 0.0%; relative % change (of % relative to Sal A) [15]: −0.5%; relative % change (of % relative to Sal A) [16]: 3.5%; relative % change (of % relative to Sal A) [17]: 3.5%; relative % change (of % relative to Sal A) [18]: 7.9%; relative % change (of % relative to Sal A) [19]: −0.5%; relative % change (of % relative to Sal A) [20]: −1.4%; % increase/decrease of titer [21]: 6.2%; relative % change (of % relative to Sal A) [21]: −3%; % Increase (+) or % decrease (−) of average max titer [22]: −37.2%; % Increase (+) or % decrease (−) of average max titer [23]: −44.9%; relative decrease in production (relative to Salinosporamide A) (Ex.2): 1.4%; reduction of production [24]: 44.9%; reduction of production [25]: 12.2%
C[C@@]12OC(=O)[C@]1([C@@H](O)[C@@H]1C=CCCC1)NC(=O)[C@@H]2CCCl [Salinosporamide A]	1.5	2.2	−1.4	+1.1%	−8.9	+1.2%	−0.3	−4.0%	−4.5	−3.0	+0.2%	−8.5	0.0	1.7	4.7	2.5	20.3	10.7	15.9	20.8	maximum production as % of the high sodium medium (Ex.11, low sodium medium (9.3 mM sodium, SHY.KCD) vs high sodium medium (413 mM sodium, SHY.B4C)): about 75%; % increase/decrease of titer [21]: 9.2%; % Increase (+) or % decrease (−) of average max titer [22]: +10.1%; % Increase (+) or % decrease (−) of average max titer [23]: 33.9%; % Increase (+) or % decrease (−) of average max titer (CoCl2·6H2O seed 208 μg/L / production 52 μg/L vs no cobalt, listed as SALINOSPORAMIDE A): +33.9%; concentration as % of the saline fermentation condition (Ex.23, low chloride medium (LoCl.PD) vs saline medium): about 35%; increase of production [25]: 21.6%

From patent publication US10011814B2, “Salt formulations for the fermentation of marine microorganisms” (Triphase Research and Development I Corp., priority 2006, dated 2018)
